How the values were obtained:
Assay type in all cases: biochemical
[1] = target: T1, MMP-3 (Homo sapiens, UniProt P08254); experiment: In vitro MMP-3 inhibition test
T1 construct: purchased R&D Systems 513-MP
Excerpt: (§1) The MMP-mediated amidolytic cleavage of a suitable peptide substrate leads to an increase in fluorescent light here too. The signal intensity of the fluorescent light is directly proportional to the enzyme activity. The active concentration of a test compound at which half the enzyme is inhibited (50% signal intensity of the fluorescent light) is reported as the IC50 value.
(§2) Recombinant MMP-3 (from R&D Systems, 513-MP) is chemically activated in accordance with the manufacturer's instructions using APMA. 1 μl of the test compound to be analysed (as a solution in DMSO, suitable concentrations, for example, 1 nM to 30 μM) is pipetted into 24 μl of activated enzyme (final concentration, for example, 2 nM) in reaction buffer (50 mM Tris/HCl pH 7.5, 10 mM CaCl2, 150 mM NaCl, 0.05% Brij®-35) in a white 384-hole microtiter plate (MTP). The enzymatic reaction is started by adding the intramolecularly quenched Mca-Arg-Pro-Lys-Pro-Val-Glu-Nval-Trp-Arg-Lys(Dnp)-NH2 substrate (final concentration, for example, 10 μM; R&D Systems, ES-002), so as to result in a total test volume of 50 The course of the MMP-3 reaction is measured by measuring the fluorescence intensity (excitation 320 nm, emission 410 nm) over a suitable period of time (for example over 120 min at a temperature of 32° C.).

[2] = target: T2, MMP-7 (Homo sapiens, UniProt P09237); experiment: In vitro MMP-7 inhibition test
T2 construct: purchased R&D Systems 907-MP
T2 sequence (P09237 95-267): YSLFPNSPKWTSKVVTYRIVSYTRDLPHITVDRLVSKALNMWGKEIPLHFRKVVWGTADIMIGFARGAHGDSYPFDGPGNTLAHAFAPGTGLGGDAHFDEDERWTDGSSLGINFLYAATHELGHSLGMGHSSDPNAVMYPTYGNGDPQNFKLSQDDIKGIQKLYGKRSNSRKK
Excerpt: as §1
as §2, with “Recombinant MMP-7” for “Recombinant MMP-3”, “Systems, 907-MP)” for “Systems, 513-MP)”, “example, 0.5” for “example, 2”, “quenched Mca-Pro-Leu-Gly-Leu-Dpa(Dnp)-Ala-Arg-NH2” for “quenched Mca-Arg-Pro-Lys-Pro-Val-Glu-Nval-Trp-Arg-Lys(Dnp)-NH2”, “Systems, ES-001),” for “Systems, ES-002),”, “the MMP-7” for “the MMP-3”

[3] = target: T3, MMP-8 (Homo sapiens, UniProt P22894); experiment: In vitro MMP-8 inhibition test
T3 construct: purchased R&D Systems 908-MP
Excerpt: as §1
(§3) Recombinant MMP-8 (from R&D Systems, 908-MP) is chemically activated in accordance with the manufacturer's instructions using APMA. 1 μl of the test compound to be analysed (as a solution in DMSO, suitable concentrations, for example, 1 nM to 30 μM) is pipetted into 24 μl of activated enzyme (final concentration, for example, 0.5 nM) in reaction buffer (50 mM Tris/HCl pH 7.5, 10 mM CaCl2, 150 mM NaCl, 0.05% Brij®-35) in a white 384-hole microtiter plate (MTP). The enzymatic reaction is started by adding the intramolecularly quenched Mca-Pro-Leu-Gly-Leu-Dpa(Dnp)-Ala-Arg-NH2 substrate (final concentration, for example, 10 μM; R&D Systems, ES-001), so as to result in a total test volume of 50 μl. The course of the MMP-8 reaction is measured by measuring the fluorescence intensity (excitation 320 nm, emission 410 nm) over a suitable period of time (for example over 120 min at a temperature of 32° C.).

[4] = target: T4, MMP-13 (Homo sapiens, UniProt P45452); experiment: In vitro MMP-13 inhibition test
T4 construct: purchased R&D Systems 511-MP
Excerpt: as §1
as §3, with “MMP-13” for “MMP-8”, “511-MP)” for “908-MP)”, “0.1” for “0.5”, “50” for “50 μl.”

[5] = target: T5, MMP-16 (Homo sapiens, UniProt P51512); experiment: In vitro MMP-16 inhibition test
T5 construct: purchased R&D Systems 1785-MP
Excerpt: as §1
Recombinant MMP-16 (from R&D Systems, 1785-MP) is enzymatically activated in accordance with the manufacturer's instructions using recombinant furin (from R&D Systems, 1503-SE). 1 μl of the test compound to be analysed (as a solution in DMSO, suitable concentrations e.g. 1 nM to 30 μM) is pipetted into 24 μl of activated enzyme (final concentration e.g. 1 nM) in reaction buffer (50 mM Tris/HCl pH 7.5, 10 mM CaCl2, 150 mM NaCl, 0.05% Brij®-35) in a white 384-hole microtiter plate (MTP). The enzymatic reaction is started by adding the intramolecularly quenched Mca-Lys-Pro-Leu-Gly-Leu-Dpa(Dnp)-Ala-Arg-NH2 substrate (final concentration, for example, 5 μM; R&D Systems, ES-010), so as to result in a total test volume of 50 The course of the MMP-16 reaction is measured by measuring the fluorescence intensity (excitation 320 nm, emission 410 nm) over a suitable period of time (for example over 120 min at a temperature of 32° C.).

T3 sequence (P22894 101-467): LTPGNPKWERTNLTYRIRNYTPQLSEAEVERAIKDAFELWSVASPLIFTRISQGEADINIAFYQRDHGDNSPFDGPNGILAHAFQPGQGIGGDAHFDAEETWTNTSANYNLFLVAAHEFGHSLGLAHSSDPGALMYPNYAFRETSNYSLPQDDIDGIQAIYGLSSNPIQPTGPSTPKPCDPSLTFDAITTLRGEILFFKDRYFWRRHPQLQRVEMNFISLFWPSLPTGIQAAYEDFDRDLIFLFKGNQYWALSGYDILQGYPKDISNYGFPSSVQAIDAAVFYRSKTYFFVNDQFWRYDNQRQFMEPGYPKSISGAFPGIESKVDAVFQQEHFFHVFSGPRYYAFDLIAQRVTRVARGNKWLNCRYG
T1 sequence (P08254 100-477): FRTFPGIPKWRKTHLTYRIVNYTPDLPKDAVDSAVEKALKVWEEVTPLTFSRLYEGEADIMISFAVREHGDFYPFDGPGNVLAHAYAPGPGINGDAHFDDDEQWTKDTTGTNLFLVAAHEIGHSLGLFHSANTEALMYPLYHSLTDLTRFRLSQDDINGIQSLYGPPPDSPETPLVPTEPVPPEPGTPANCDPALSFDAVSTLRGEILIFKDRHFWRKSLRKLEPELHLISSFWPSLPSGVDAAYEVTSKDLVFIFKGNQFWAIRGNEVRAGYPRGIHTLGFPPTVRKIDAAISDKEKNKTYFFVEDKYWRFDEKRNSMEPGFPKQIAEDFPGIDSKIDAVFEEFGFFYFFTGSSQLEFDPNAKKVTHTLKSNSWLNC
T5 sequence (P51512 120-564 limits assumed): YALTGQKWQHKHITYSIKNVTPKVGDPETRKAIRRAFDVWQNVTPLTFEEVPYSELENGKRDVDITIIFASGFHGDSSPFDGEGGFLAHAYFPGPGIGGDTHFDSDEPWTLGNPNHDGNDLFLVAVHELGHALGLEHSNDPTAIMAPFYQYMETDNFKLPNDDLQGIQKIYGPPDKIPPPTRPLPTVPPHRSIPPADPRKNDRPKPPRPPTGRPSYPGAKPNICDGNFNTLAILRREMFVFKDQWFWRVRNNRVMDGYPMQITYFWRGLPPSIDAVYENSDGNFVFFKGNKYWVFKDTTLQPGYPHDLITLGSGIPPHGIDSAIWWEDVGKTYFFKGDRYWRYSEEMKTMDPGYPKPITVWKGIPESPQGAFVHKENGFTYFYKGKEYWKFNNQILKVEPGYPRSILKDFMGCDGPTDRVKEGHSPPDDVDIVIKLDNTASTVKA

| SMILES | IC50 [1] | IC50 [2] | IC50 [3] | IC50 [4] | IC50 [5] |
| --- | --- | --- | --- | --- | --- |
| Cc1cccc(COc2ccc(C(=O)[C@@H]3CC[C@H](Cn4nnc5ccc(C(F)(F)F)cc5c4=O)[C@H]3C(=O)O)cc2)c1 (single isomer, unassigned) [Example 16, (+)-(1RS,2RS,5SR)-2-{4-[(3-Methylbenzyl)oxy]benzoyl}-5-{[4-oxo-6-(trifluoromethyl)-1,2,3-benzotriazin-3(4H)-yl]methyl}cyclopentanecarboxylic acid] | 0.35 µM | 0.19 µM | 0.065 µM | 1 µM | 1.7 µM |
| O=C(O)[C@@H]1[C@@H](Cn2nnc3ccc(C(F)(F)F)cc3c2=O)CC[C@H]1C(=O)c1ccc(OCc2cccc(C(F)(F)F)c2)cc1 (single isomer, unassigned) [Example 19, (+)-(1RS,2SR,5RS)-2-{[4-Oxo-6-(trifluoromethyl)-1,2,3-benzotriazin-3(4H)-yl]methyl}-5-(4-{[3-(trifluoromethyl)benzyl]oxy}benzoyl)cyclopentanecarboxylic acid] | 3 µM | 1.6 µM | 0.13 µM | 2.6 µM | 5.4 µM |
| O=C(O)[C@@H]1[C@@H](Cn2nnc3ccc(C(F)(F)F)cc3c2=O)CC[C@H]1C(=O)c1ccc(OCc2cccc(Cl)c2)cc1 (single isomer, unassigned) [Example 23, (+)-(1RS,2RS,5SR)-2-{4-[(3-Chlorobenzyl)oxy]benzoyl}-5-{[4-oxo-6-(trifluoromethyl)-1,2,3-benzotriazin-3(4H)-yl]methyl}cyclopentanecarboxylic acid] | 0.54 µM | 0.5 µM | 0.056 µM | 1.5 µM | 2.2 µM |
| O=C(O)[C@@H]1[C@@H](Cn2nnc3ccc(C(F)(F)F)cc3c2=O)CC[C@H]1C(=O)c1ccc(OCc2ccc(Cl)cc2)cc1 (single isomer, unassigned) [Example 25, (+)-(1RS,2RS,5SR)-2-{4-[(4-Chlorobenzyl)oxy]benzoyl}-5-{[4-oxo-6-(trifluoromethyl)-1,2,3-benzotriazin-3(4H)-yl]methyl}cyclopentanecarboxylic acid] | 0.063 µM | 0.12 µM | 0.00079 µM | 0.045 µM | 0.29 µM |
| O=C(O)[C@@H]1[C@@H](Cn2nnc3ccc(C(F)(F)F)cc3c2=O)CC[C@H]1C(=O)c1ccc(OCc2cccc(N3CCOC3=O)c2)cc1 (single isomer, unassigned) [Example 35, (+)-(1RS,2RS,5SR)-2-(4-{[3-(2-Oxo-1,3-oxazolidin-3-yl)benzyl]oxy}benzoyl)-5-{[4-oxo-6-(trifluoromethyl)-1,2,3-benzotriazin-3(4H)-yl]methyl}cyclopentanecarboxylic acid] | 0.4 µM | 0.031 µM | 0.002 µM | 0.053 µM | 0.3 µM |
| O=C(O)[C@@H]1[C@@H](Cn2nnc3ccc(C(F)(F)F)cc3c2=O)CC[C@H]1C(=O)c1ccc(OCC2CCCCC2)cc1 (single isomer, unassigned) [Example 41, (+)-(1RS,2RS,5SR)-2-[4-(Cyclohexylmethoxy)benzoyl]-5-{[4-oxo-6-(trifluoromethyl)-1,2,3-benzotriazin-3(4H)-yl]methyl}cyclopentanecarboxylic acid] | 0.041 µM | 0.068 µM | 0.0016 µM | 0.11 µM | 0.27 µM |
| O=C(O)[C@@H]1[C@@H](Cn2nnc3ccc(C(F)(F)F)cc3c2=O)CC[C@H]1C(=O)c1ccc(OCC2CCCC2)cc1 (single isomer, unassigned) [Example 44, (+)-(1RS,2RS,5SR)-2-[4-(Cyclopentylmethoxy)benzoyl]-5-{[4-oxo-6-(trifluoromethyl)-1,2,3-benzotriazin-3(4H)-yl]methyl}cyclopentanecarboxylic acid] | 0.14 µM | 0.14 µM | 0.0011 µM | 0.058 µM | 0.1 µM |

Results, then the compound that gave them:

| IC50 [1] | IC50 [2] | IC50 [3] | IC50 [4] | IC50 [5] | SMILES |
| --- | --- | --- | --- | --- | --- |
| 0.38 µM | 0.34 µM | 0.038 µM | 1.6 µM | 4.6 µM | O=C(O)[C@@H]1[C@@H](Cn2nnc3ccc(C(F)(F)F)cc3c2=O)CC[C@H]1C(=O)c1ccc(OCCC2CCCCC2)cc1 (single isomer, unassigned) [Example 52, (+)-(1RS,2RS,5SR)-2-[4-(2-Cyclohexylethoxy)benzoyl]-5-{[4-oxo-6-(trifluoromethyl)-1,2,3-benzotriazin-3(4H)-yl]methyl}cyclopentanecarboxylic acid] |
| 0.44 µM | 0.26 µM | 0.03 µM | 1.7 µM | 5.1 µM | O=C(O)[C@@H]1[C@@H](Cn2nnc3ccc(C(F)(F)F)cc3c2=O)CC[C@H]1C(=O)c1ccc(OCCC2CCCC2)cc1 (single isomer, unassigned) [Example 55, (+)-(1RS,2RS,5SR)-2-[4-(2-Cyclopentylethoxy)benzoyl]-5-{[4-oxo-6-(trifluoromethyl)-1,2,3-benzotriazin-3(4H)-yl]methyl}cyclopentanecarboxylic acid] |
| 0.3 µM | 0.18 µM | 0.016 µM | 0.44 µM | 2.3 µM | CCCCCCOc1ccc(C(=O)[C@@H]2CC[C@H](Cn3nnc4ccc(C(F)(F)F)cc4c3=O)[C@H]2C(=O)O)cc1 (single isomer, unassigned) [Example 58, (+)-(1RS,2RS,5SR)-2-[4-(Hexyloxy)benzoyl]-5-{[4-oxo-6-(trifluoromethyl)-1,2,3-benzotriazin-3(4H)-yl]methyl}cyclopentanecarboxylic acid] |
